The source of these data is article PMC6073568, “Efficient Lead Finding, Activity Enhancement and Preliminary Selectivity Control of Nuclear Receptor Ligands Bearing a Phenanthridinone Skeleton” (International Journal of Molecular Sciences, 2018).

Read-outs that look alike come from different tables or passages of the source.

One assay deals with T1, LXRα (Homo sapiens, UniProt Q13133).
T1 construct: CMX-GAL4N-hLXRα-LBD; expressed in transfected cells; host or cells: HEK293
T1 sequence (Q13133 209-447 limits assumed): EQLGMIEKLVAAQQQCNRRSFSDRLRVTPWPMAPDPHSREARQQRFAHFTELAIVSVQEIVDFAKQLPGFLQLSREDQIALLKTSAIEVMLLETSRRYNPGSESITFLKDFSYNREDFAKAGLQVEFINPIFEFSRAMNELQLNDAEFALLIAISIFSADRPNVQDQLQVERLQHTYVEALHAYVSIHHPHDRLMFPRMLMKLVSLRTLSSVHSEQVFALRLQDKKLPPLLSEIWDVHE
In words: LXRα reporter gene assay in HEK293. The assay is classed as cell-based. To be noted: read-out: LXRα antagonistic activity (IC50). (Reporter assays use an easily measured gene product as a stand-in for the process of interest.)

The target of the next assay is T2, LXRβ (Homo sapiens, UniProt P55055).
T2 construct: CMX-GAL4N-hLXRβ-LBD; expressed in transfected cells; host or cells: HEK293
T2 sequence (P55055 222-460 limits assumed): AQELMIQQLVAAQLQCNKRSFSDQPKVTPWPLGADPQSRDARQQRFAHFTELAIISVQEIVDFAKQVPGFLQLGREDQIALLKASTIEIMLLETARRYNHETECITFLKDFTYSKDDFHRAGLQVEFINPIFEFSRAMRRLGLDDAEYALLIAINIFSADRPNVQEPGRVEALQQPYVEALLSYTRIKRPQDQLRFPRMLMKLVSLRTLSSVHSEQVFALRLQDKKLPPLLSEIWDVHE
As to the kind of experiment: LXRβ reporter gene assay in HEK293. The assay is classed as cell-based. The conditions noted are these: read-out: LXRβ antagonistic activity (IC50).

Another assay deals with T3, AR (Homo sapiens, UniProt P10275).
T3 sequence (P10275 1-920): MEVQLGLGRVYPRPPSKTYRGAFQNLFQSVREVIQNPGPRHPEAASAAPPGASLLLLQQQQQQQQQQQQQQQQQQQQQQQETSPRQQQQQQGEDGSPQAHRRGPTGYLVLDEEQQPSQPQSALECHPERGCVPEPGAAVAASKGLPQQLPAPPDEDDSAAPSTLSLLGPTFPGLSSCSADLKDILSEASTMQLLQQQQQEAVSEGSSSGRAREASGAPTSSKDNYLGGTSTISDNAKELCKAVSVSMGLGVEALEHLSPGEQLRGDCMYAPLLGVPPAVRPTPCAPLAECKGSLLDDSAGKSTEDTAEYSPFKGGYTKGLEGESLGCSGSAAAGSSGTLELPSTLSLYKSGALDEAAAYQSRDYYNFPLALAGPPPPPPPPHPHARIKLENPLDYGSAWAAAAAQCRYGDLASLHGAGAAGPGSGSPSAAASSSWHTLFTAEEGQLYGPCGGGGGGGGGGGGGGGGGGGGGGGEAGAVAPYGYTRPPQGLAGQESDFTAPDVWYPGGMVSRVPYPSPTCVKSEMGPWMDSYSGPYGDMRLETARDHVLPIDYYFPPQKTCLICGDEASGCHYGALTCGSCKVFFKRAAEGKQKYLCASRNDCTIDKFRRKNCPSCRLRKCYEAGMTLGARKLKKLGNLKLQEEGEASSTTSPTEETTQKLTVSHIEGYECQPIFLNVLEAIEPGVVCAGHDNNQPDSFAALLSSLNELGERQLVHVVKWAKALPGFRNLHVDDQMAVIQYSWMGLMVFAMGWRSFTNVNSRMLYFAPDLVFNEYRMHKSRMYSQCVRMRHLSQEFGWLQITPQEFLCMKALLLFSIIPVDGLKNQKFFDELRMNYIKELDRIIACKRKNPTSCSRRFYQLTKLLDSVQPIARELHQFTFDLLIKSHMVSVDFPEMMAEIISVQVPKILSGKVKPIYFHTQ
In words: AR reporter gene assay in HEK293. The format is cell-based. The conditions noted are these: for IC50: reporter gene assay, HEK293.

Another assay deals with T4, GR (Homo sapiens, UniProt P04150).
T4 construct: expressed in transfected cells; host or cells: HEK293
T4 sequence (P04150 1-777): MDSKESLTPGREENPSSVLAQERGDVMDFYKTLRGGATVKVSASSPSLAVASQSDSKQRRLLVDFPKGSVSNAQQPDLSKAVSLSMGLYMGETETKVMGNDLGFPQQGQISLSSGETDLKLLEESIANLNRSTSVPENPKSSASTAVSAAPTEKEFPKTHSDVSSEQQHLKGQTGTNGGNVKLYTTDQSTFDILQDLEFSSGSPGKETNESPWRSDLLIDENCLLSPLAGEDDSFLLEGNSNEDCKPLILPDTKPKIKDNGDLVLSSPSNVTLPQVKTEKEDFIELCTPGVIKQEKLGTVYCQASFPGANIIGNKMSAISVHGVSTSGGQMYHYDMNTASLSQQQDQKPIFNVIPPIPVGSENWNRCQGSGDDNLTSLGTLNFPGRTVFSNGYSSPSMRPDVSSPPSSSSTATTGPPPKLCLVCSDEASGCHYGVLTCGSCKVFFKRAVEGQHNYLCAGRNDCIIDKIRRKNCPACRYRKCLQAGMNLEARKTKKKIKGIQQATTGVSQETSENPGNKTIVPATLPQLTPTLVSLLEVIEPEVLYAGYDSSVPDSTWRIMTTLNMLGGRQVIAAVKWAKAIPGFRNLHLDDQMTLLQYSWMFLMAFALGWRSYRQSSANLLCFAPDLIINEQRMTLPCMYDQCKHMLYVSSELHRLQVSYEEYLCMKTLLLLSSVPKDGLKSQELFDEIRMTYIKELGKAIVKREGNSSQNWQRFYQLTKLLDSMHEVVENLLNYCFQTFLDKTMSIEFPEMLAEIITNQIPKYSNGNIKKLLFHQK
As to the kind of experiment: GR reporter gene assay in HEK293. The conditions noted are these: reporter gene assay, HEK293; agonist dexamethasone 1 nM; read-out: GR antagonistic activity (IC50). The assay is classed as cell-based.

Assay [1] concerns the target T5, PR (Homo sapiens, UniProt P06401).
T5 sequence (P06401 1-933): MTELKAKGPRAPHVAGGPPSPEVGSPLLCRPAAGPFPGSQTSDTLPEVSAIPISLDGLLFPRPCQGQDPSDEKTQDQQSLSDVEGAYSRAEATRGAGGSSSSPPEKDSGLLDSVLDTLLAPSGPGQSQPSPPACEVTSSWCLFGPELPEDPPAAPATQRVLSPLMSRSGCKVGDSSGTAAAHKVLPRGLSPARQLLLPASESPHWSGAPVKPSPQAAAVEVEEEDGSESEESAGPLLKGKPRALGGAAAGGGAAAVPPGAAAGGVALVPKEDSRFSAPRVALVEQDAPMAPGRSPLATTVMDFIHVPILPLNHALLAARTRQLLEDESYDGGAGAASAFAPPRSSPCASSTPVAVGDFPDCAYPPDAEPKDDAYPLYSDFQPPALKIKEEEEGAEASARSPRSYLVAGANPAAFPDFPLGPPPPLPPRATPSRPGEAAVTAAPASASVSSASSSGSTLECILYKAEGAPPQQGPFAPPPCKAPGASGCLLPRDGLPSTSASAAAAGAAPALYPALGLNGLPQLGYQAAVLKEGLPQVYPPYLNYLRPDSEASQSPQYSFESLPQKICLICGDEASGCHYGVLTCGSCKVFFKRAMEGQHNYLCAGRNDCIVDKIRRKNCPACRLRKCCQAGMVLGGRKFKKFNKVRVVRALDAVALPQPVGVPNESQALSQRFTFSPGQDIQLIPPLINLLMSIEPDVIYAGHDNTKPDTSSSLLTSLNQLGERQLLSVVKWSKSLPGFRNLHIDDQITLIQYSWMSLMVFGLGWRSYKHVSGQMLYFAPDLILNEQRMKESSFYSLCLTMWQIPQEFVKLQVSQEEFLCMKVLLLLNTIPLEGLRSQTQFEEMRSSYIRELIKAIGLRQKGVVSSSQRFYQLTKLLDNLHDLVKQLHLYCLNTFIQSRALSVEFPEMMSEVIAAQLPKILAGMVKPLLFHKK
The conditions noted are these: alkaline phosphatase, T47D cells, progesterone 1 nM; read-out: PR antagonistic activity (IC50); cited from earlier work.

Assay [2] addresses T5, PR. As to the kind of experiment: T-47D alkaline phosphatase assay (PR antagonism). The format is cell-based. To be noted: compared with 7.
Setting [3] is: agonist dihydrotestosterone 0.3 nM, read-out: AR antagonistic activity (IC50), AR reporter gene.

Broadly, the IC50 is the point on the concentration scale where inhibition reaches its midpoint. Consider `CCCCn1c(=O)c2ccc(Cl)cc2c2cc(C(O)(C(F)(F)F)C(F)(F)F)ccc21` [Compound 2], for which the IC50 was 9.2 µM on LXRα; 0.88 µM at LXRβ; 5.2 µM at AR (setting [3]); 10 µM at GR; 4.3 µM at PR [1].
For `CCCCn1c(=O)c2ccccc2c2cc(C(O)(C(F)(F)F)C(F)(F)F)ccc21` [Compound 12], the IC50 on LXRα was determined as 8.4 µM; at LXRβ it was 3.7 µM; at AR (setting [3]), 1.8 µM; on AR (read-out: AR antagonistic activity IC50), 0.1 µM; at GR, 7.4 µM. Further, on PR [2], the “increase of PR activity” value was found to be 6 fold. The “selectivity for AR over LXRs” value at AR is roughly 50 fold. Moreover, at AR, the “selectivity for AR over PR” value was “about 7.8 fold”. Besides, the “selectivity for AR over RORs and GR” value at AR is on record as “more than 200 fold”. Further, the “increase of AR activity” value at AR (compared with 7) is 9 fold.
With `CCCCn1c(=O)c2ccc(C)cc2c2cc(C(O)(C(F)(F)F)C(F)(F)F)ccc21` [Compound 36], the IC50 at LXRα was 12 µM; at LXRβ, 3 µM; at AR (setting [3]) it was 6.4 µM; at GR, 16 µM; on PR [1], 3.7 µM.
Regarding `CCCCn1c(=O)c2ccc(C(F)(F)F)cc2c2cc(C(O)(C(F)(F)F)C(F)(F)F)ccc21` [Compound 37], the IC50 on LXRα was 7.1 µM; at LXRβ, 4.4 ± 0.8 µM; at AR (setting [3]) it was greater than 20 µM; at GR, greater than 20 µM; on PR [1], 4.2 µM.
